The target in series [1] is T1, mouse abdominal macrophage microsome ACAT (Mus musculus, UniProt Q61263).
T1 construct: from tissue; host or cells: microsomes of thioglycolate-elicited peritoneal (abdominal) macrophages of C57BL6J mice, cultured 24 h with rabbit beta-VLDL
T1 sequence (Q61263 1-540): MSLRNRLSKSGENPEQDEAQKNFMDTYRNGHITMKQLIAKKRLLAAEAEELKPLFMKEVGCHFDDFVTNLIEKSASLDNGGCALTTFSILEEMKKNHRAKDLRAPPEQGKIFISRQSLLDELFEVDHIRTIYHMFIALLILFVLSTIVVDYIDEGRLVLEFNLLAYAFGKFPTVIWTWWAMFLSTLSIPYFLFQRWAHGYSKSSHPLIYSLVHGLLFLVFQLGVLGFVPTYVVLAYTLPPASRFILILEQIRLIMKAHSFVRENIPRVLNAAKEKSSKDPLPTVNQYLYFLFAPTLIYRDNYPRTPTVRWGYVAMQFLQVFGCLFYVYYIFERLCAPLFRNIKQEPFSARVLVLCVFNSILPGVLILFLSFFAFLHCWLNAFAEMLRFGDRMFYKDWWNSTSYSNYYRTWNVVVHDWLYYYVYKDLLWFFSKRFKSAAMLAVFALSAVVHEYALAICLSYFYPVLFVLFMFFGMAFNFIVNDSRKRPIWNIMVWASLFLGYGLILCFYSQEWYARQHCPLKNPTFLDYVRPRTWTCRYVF
The experiment in a line: ACAT inhibitory activity (mouse abdominal macrophage microsome ACAT). As to conditions: microsome ACAT from thioglycolate-stimulated C57BL6J mouse abdominal macrophage; 3H-oleyl-CoA, 37° C. for 20 minutes; read-out: Enzyme inhibition (IC50). The series is classed as biochemical. The procedure: [Preparation of Mouse Abdominal Macrophage Microsome ACAT]
According to the method of Hakamada et al. (Experimental Medicine Suppliment vol. 14, No. 12, Circulation Research Protocol, p, 49-52, 1996), an abdominal macrophage was taken from a thioglycolate-stimulated C57BL6J mouse and cultured for 24 hours in a RPMI 1640-25 mM HEPES (pH7.0) medium containing rabbit β-very low density lipoprotein (β-VLDL, 150 μg cholesterol/ml) which had been prepared by the method of Ishii et al. (Ishii I et al., Arterioscler, Thromb, 12, 1139-1145, 1992). The abdominal macrophage was then collected by centrifugation (4° C., 1.000 rpm, 5 minutes) and sonicated. The sonicated liquid was centrifuged (4° C., 5000 rpm, 15 minutes) and then ultracentrifuged (4° C., 50, 000 rpm, 90 minutes) to prepare a microsome. The microsome thus obtained was used for measuring ACAT inhibitory activity of a test compound as mouse abdominal macrophage microsome ACAT.
[Method for Measuring ACAT Inhibitory Activity]
A mixture of a test compound, cholesterol-albumin-containing-Tris-HCL buffer (pH 7.5) and mouse abdominal macrophage microsome ACAT was pre-incubated at 37° C. for 10 minutes, and ^3H-oleyl-CoA was added to react at 37° C. for 20 minutes. A stopping solution composed of chloroform-methyl alcohol-distilled water (2:2:1 v/v) was added, and produced cholesteryl ester (CE) was extracted with shaking. The extract was subjected to silica gel thin chromatography (petroleum ether:diethyl ether:acetic acid=9:1:0.1 v/v), and the resulting ^3H-CE fraction was measured with a scintillation counter.
ACAT inhibiting rate was calculated from the proportion based on ACAT activity without a test compound, and an IC50 value was calculated as the concentration (μM) of a test compound showing ACAT inhibiting rate 50%. The results are shown in [Table 15].

Here are results for seven compounds from US20070179154A1, “Coumarin derivatives, process for their production and use thereof” (Takeda Pharmaceutical Company Limited, priority 2002, published 2007).

Turning to `Cc1cc2c(-c3cccc(CCCC(=O)O)c3)c(CC(=O)Nc3ccc(F)cc3C(F)(F)F)c(=O)oc2cc1Cl` [Example 78], the half-maximal inhibitory concentration (IC50) in series [1] was determined as 430 nM.

Consider `O=C(O)/C=C/c1cccc(-c2c(CC(=O)Nc3ccc(F)cc3C(F)(F)F)c(=O)oc3cc(Cl)c(CN4CCN(c5ccccc5)CC4)cc23)c1` [Example 110, (2E)-3-(3-{7-chloro-3-(2-{[4-fluoro-2-(trifluoromethyl)phenyl]amino}-2-oxoethyl)-2-oxo-6-[(4-phenylpiperazin-1-yl)methyl]-2H-chromen-4-yl}phenyl)acrylic acid], for which the melting point is 238 to 240 °C. Besides, in series [1], the IC50 was determined as 540 nM.

With `O=C(O)/C=C/c1cccc(-c2c(CC(=O)Nc3ccc(Cl)cc3C(F)(F)F)c(=O)oc3cc(Cl)c(CN4CCN(c5ccccc5)CC4)cc23)c1` [Example 111, (2E)-3-(3-{7-chloro-3-(2-{[4-chloro-2-(trifluoromethyl)phenyl]amino}-2-oxoethyl)-2-oxo-6-[(4-phenylpiperazin-1-yl)methyl]-2H-chromen-4-yl}phenyl)acrylic acid], the melting point lay within 239 to 241 °C. Further, the IC50 in series [1] turned out to be 610 nM.

`O=C(Cc1c(-c2cccc(C(=O)O)c2)c2cc(CN3CCN(c4ccccc4)CC3)c(Cl)cc2oc1=O)Nc1ccc(F)cc1C(F)(F)F` [Example 112, 3-{7-chloro-3-(2-{[4-fluoro-2-(trifluoromethyl)phenyl]amino}-2-oxoethyl)-2-oxo-6-[(4-phenylpiperazin-1-yl)methyl]-2H-chromen-4-yl}benzoic acid]: the melting point lay within 149 to 151 °C. Further, in series [1], the concentration for half-maximal inhibition (IC50) was found to be 540 nM.

In turn, `O=C(Cc1c(-c2cccc(C(=O)O)c2)c2cc(CN3CCN(c4ccccc4)CC3)c(Cl)cc2oc1=O)Nc1ccc(Cl)cc1C(F)(F)F` [Example 113, 3-{7-chloro-3-(2-{[4-chloro-2-(trifluoromethyl)phenyl]amino}-2-oxoethyl)-2-oxo-6-[(4-phenylpiperazin-1-yl)methyl]-2H-chromen-4-yl}benzoic acid] displayed a melting point of 151 to 153 °C. Also, the half-inhibitory concentration (IC50) in series [1] turned out to be 1220 nM.

In turn, `O=C(O)CCc1cccc(-c2c(CC(=O)Nc3ccc(F)cc3C(F)(F)F)c(=O)oc3cc(Cl)c(CN4CCN(c5ccccc5)CC4)cc23)c1` [Example 114] displayed a melting point of 226 to 228 °C. Also, in series [1], the IC50 was found to be 550 nM.

`O=C(O)CCc1cccc(-c2c(CC(=O)Nc3ccc(Cl)cc3C(F)(F)F)c(=O)oc3cc(Cl)c(CN4CCN(c5ccccc5)CC4)cc23)c1` [Example 115] showed a melting point of 207 to 209 °C. Moreover, in series [1], the IC50 turned out to be 420 nM.
